Reference: patent publication US20190315711A1 (eXIthera Pharmaceuticals, Inc., priority 2016, published 2019)

Assay: Determination of bioavailability in a dog
Type: in vivo
Conditions: plasma, male beagle dogs, IV 1 mg/kg vs oral gavage 5 mg/kg
Experimental: The following protocol was used to estimate the bioavailability of test compounds in a dog. Test compounds were formulated in vehicles compatible with intravenous and oral dosing. Test compounds were administered to male beagle dogs via an intravenous bolus at 1 mg/kg (1 mg/mL at a dose volume of 1 mL/kg) or via oral gavage at 5 mg/kg (1 mg/mL at a dose volume of 5 mL/kg). Blood samples were collected via the contralateral (to intravenous bolus) jugular vein or via other accessible vein, at various timepoints following administration out to 24 hours post dose. Plasma samples (EDTA) were obtained by centrifugation (2200×g for 10 minutes at 5° C.) and stored frozen ([…]) until analyzed for parent compound via LC/MS/MS. Pharmacokinetic parameters were estimated from the plasma concentration time data by standard non-compartmental methods utilizing standard analysis software. By comparing the area under the curve (AUC) for IV and PO administration estimates of oral bioavailability were determined.

| bioavailability [%] | Compound |
| --- | --- |
| ≤ 10 | CN(C(=O)[C@@H]1[C@@H](Cc2ccnc(N)c2)C(=O)N1C(=O)N[C@@H](C1CCCCC1)C(F)(F)F)c1ncccn1 [Compound 21] |
| 11 to 30 | CC[C@@H](NC(=O)N1C(=O)[C@H](Cc2ccnc(N)c2)[C@H]1C(=O)N(C)c1ccncc1)C1CCCCC1 [Compound 25] |
| > 30 | CC[C@@H](NC(=O)N1C(=O)[C@H](Cc2ccnc(N)c2)[C@H]1C(=O)N(C)c1ccccc1)C1CCCCC1 [Compound 27] |
| 11 to 30 | CN(C(=O)[C@@H]1[C@@H](Cc2ccnc(N)c2)C(=O)N1C(=O)N[C@@H](C1CCCCC1)C1CC1)c1ccccc1 [Compound 36] |
| ≤ 10 | CC[C@@H](NC(=O)N1C(=O)[C@H](Cc2ccnc(N)c2)[C@H]1C(=O)N(CC)c1ncccn1)C1CCCCC1 [Compound 39] |
| > 30 | CC[C@@H](NC(=O)N1C(=O)[C@H](Cc2ccnc(N)c2)[C@H]1C(=O)N(C)c1ccncc1)c1ccccc1 [Compound 42] |
| ≤ 10 | CN(C(=O)[C@@H]1[C@@H](Cc2ccnc(N)c2)C(=O)N1C(=O)N[C@@H](C1CCCCC1)C1CC1)c1ccncc1 [Compound 52] |
| 11 to 30 | CC[C@@H](NC(=O)N1C(=O)[C@H](Cc2ccnc(N)c2)[C@H]1C(=O)N(C)c1ccncc1)c1cccnc1 [Compound 59] |
| ≤ 10 | CC[C@@H](NC(=O)N1C(=O)[C@H](Cc2ccnc(N)c2)[C@H]1C(=O)N(C)c1ncccn1)c1cccnc1 [Compound 61] |
| > 30 | CC[C@@H](NC(=O)N1C(=O)[C@H](Cc2ccnc(NC)c2)[C@H]1C(=O)N(C)c1ncccn1)C1CCCCC1 [Compound 80] |
| > 30 | CC[C@@H](NC(=O)N1C(=O)[C@H](Cc2ccnc(N)c2)[C@H]1C(=O)N(C)c1ncccn1)c1ccccc1 [Compound 84] |
| > 30 | CC[C@@H](NC(=O)N1C(=O)[C@H](Cc2ccnc(N)c2)[C@H]1C(=O)N(C)c1ccncc1)c1cccc(C)c1 [Compound 87] |
| > 30 | CC[C@@H](NC(=O)N1C(=O)[C@H](Cc2ccnc(N)c2)[C@H]1C(=O)N(C)c1ccncc1)c1cccc(Cl)c1 [Compound 90] |
| > 30 | CC[C@@H](NC(=O)N1C(=O)[C@H](Cc2cc(C)nc(N)c2)[C@H]1C(=O)N(C)c1ccccc1)C1CCCCC1 [Compound 91] |
